# Entries after “also recorded” stand apart in the source; their conditions may differ. Where two headings read alike, the source gives them in different places.
# B1: 8019: IgG1, κ antibody; recognizes the CEA antigen expressed by the LS17T4 tumor cell line (protein)
# chain: DIVLTQSPASLSASVGETVTITCRASENIYSYLLWYQQKQGKSPQLLVYNAKTLAEGVPSRFSGSGSGTQFSLKINSLQPEDFGSYFCQHHFGTPWTFGGGTSLEIKRAEVNLEESGGGLVQPGGSMKLSCAASGFTESDAWMDWVRQSPEKGLEWVAEIRTKVNNHATYYAESVKGRFTISRDDSKSNVYLQMNSLRVEDTGIYYCTMAYYEAYWGQGTLVTSAAK
# modifications: photoaffinity label in the variable domains as tested: biotinylated 8-azidoadenosine (FACS) or [gamma-32P]8-N3ATP (cell binding competition); labelled residue not fixed
# notes: IgG1, κ antibody; recognizes the CEA antigen expressed by the LS17T4 tumor cell line
# B2: S1C5: anti-B cell lymphoma idiotype antibody; specific for a murine B-cell tumor idiotype 38C13 (protein)
# chain: QIVLTQSPAINSASLGERVTMTCTASSSVSSSYFHWYQQKQGSSPKLWIYTTSNLASGVPARFSGSGSGTSYSLTISSMEAEDAATYYCHQYHRSPLTFGAGTKLELKRAQVQLQQSDAILVKPGASVKISCKASGYTFTDHVIHWVKQRPEQLGEWIGFISPGNGDIRYNEKFKDKATADKSSSTAYMQLNSLTSEDSAVYFCKRSFYYYDDNYGDYWGQGTTLTVSSAK
# modifications: photoaffinity label in the variable domains as tested: biotinylated 8-azidoadenosine (FACS) or [gamma-32P]8-N3ATP (cell binding competition); labelled residue not fixed
# notes: anti-B cell lymphoma idiotype antibody; specific for a murine B-cell tumor idiotype 38C13
# Experiments:
# antibody affinity site = assay: Protection experiments with nucleotides and nucleosides against [γ^32 P]8-N3 ATP photolabeling; assay type: binding; conditions: data not shown
# Method: (§1) Antibodies (3 μg) were incubated with 200 μM [γ^32 P]8-N3 ATP (5-30 mCi/μmole) in a final volume of 30 μL for 1 minute and photolyzed with a hand-held UV lamp at 254 nm for 1 min. The reactions were quenched with protein solubilizing mixture (10% SDS, 3.6M urea, 162 mM DTT, Pyronin Y and 20 mM Tris, pH 8.0) and analyzed by 6-14% gradient SDS-PAGE. The gels were stained with Coomassie Brilliant Blue, destained, and dried using a slab gel drier. ^32 P incorporation was detected by autoradiography and quantified by either scanning on an optical Image and Acquisition Analysis (Ambis, Inc.) or by cutting the appropriate band from the gel counting the radioactivity by liquid scintillation counting.
# (§2) Antibody S1C5 (Maloney et al, Hybridoma, 4:191-209 (1985)), and 8019 (Koprowsky et al, Somat. Cell. Genet., 5:957-961 (1979)) each (3 μg) were incubated with increasing concentrations of [γ^32 P]8-N3 ATP for 1 min at 4° C. and photolyzed and analyzed as described above. Protection of photolabeling of S1C5 and 8019 was performed by incubating […] of antibodies with increasing concentrations of ATP for 2 min followed by incubation with 200 μM [γ^32 P]8-N3 ATP for 1 min and photolyzed and analyzed as described above. […]
# SIC5 antibody [1] = assay: Inhibition by ATP of [γ^32 P]-8-N3 ATP photoincorporation into SIC5 (S1C5) antibody; assay type: binding, murine
# Method: The SIC5 antibody was again labeled, but in this example labeling was performed in the presence of increasing amounts of free ATP. Specifically,3 μg of the SIC5 antibody was photolyzed in the presence of 200 μm [γ^32 P]-8-N3 ATP using concentrations of ATP ranging from 0 to 700 μm. The labeled protein was again separated by SDS-PAGE; and radioactivity determined by liquid scintillation counting.
# as §1
# (§3) Antibody S1C5 (Maloney et al, Hybridoma, 4:191-209 (1985)), and 8019 (Koprowsky et al, Somat. Cell. Genet., 5:957-961 (1979)) each (3 μg) were incubated with increasing concentrations of [γ^32 P]8-N3 ATP for 1 min at 4° C. and photolyzed and analyzed as described above. Protection of photolabeling of S1C5 and 8019 was performed by incubating […] of antibodies with increasing concentrations of ATP for 2 min followed by incubation with 200 μM [γ^32 P]8-N3 ATP for 1 min and photolyzed and analyzed as described above. Protection experiments using amino acids were performed by incubating 3 μg of S1C5 antibody with increasing concentrations of amino acids for 2 min, followed by incubation with 200 μM [γ^32 P]8-N3 ATP for 1 min. Photolysis and analysis were performed as described.
# 8019 antibody [2] = assay: Inhibition by ATP of [γ^32 P]8-N3 ATP photolabeling of 8019 antibody; assay type: binding; conditions: 8019, 200 μM [γ^32 P]8-N3 ATP, in words
# Method: as §1, §2
# SIC5 antibody [3] = assay: Photolabeling saturation of SIC5 (S1C5) antibody with [γ^32 P]-8-N3 ATP; assay type: binding, murine
# Method: In particular, 3 μg of SIC5 antibody in […] of photolysis buffer was photolyzed with increasing concentrations of [γ^32 P]-8-N3 ATP and then separated by SDS-PAGE. ^32 P incorporation was detected by autoradiography and quantified by scanning on Optical Imaging Acquisition Analysis (Ambis, Inc.). Photoincorporation was quantitatively confirmed by cutting the appropriate band and determining radioactivity by liquid scintillation counting. […] It can further be seen that there is a defined saturating concentration of probe at about 200 μm for both chains. This saturation plateau provides strong evidence that there exists a unique and limited number of affinity sites of the antibody which are bound by the [γ^32 P]-8-N3 ATP compound.
# as §1, §3
# 8019 antibody [4] = assay: Photolabeling saturation of 8019 antibody with [γ^32 P]8-N3 ATP; assay type: binding; conditions: 8019, Example 10
# Method: as §1, §2
# S1C5 antibody [5] = assay: Quantitative immuno-precipitation of [γ^32 P]8-N3 ATP labeled S1C5 (stoichiometry); assay type: binding, murine; conditions: triplicate experiments
# Text: Amino acid sequence of S1C5 and 8019 were deduced from the cloned and sequenced V genes (FIG. 12c). The identified peptides from photoaffinity labeling corresponded to sequences located in the variable Ig domain. The peptides eluted first (T1) from each antibody are derived from the CDR1 domain of the variable light chain extending into FR2. The second eluted peptides (T2) are from the CDR3-FR4 region of the variable heavy chain domain. It is striking that both peptides included invariant aromatic residues, Trp H103 in the VH domain and the highly conserved Tyr L36 within the VL domain.
# S1C5 antibody [6] = assay: Protection of S1C5 photolabeling by amino acids; assay type: binding, murine; conditions: 200 μM [γ^32 P]8-N3 ATP
# Method: as §1, §2
# [7] = tested on: CEA antigen, LS174T tumor cells; assay: Competition of γ^32 P-labeled 8019 binding to its cellular target by unlabeled antibody; assay type: cell-based; conditions: data not shown
# Method: (§4) To determine whether the modification of this site affects antigen recognition the binding of photolabeled S1C5 (IgG2a, κ) and 8019 (IgG1, κ) to their respective antigens was tested, S1C5 is specific for a murine B-cell tumor idiotype 38C13 (13) and 8019 recognizes the CEA antigen (Koprowsky et al, Somat. Cell. Genet., 5:957-961 (1979)), expressed by the LS17T4 tumor cell line. […] Also, these same antibodies were photomodified with biotinylated 8-N3 adenosine and used in FACS. […] A comparison of the photoaffinity biotinylated antibodies with conventionally biotinylated antibodies in FACS produced nearly identical staining (manuscript submitted).
# LS174T tumor cells = assay: FACS of biotinylated 8-azidoadenosine labeled 8019; assay type: cell-based; conditions: biotinylated 8-N3 adenosine modified antibody
# Method: (§5) Tumor cells (38C13 and LS174T, 1×10^6) were incubated with biotinylated 8-azidoadenosine labeled antibody S1C5 or 8019 (manuscript submitted) for 60 min. on ice. After washing with 5% FCS/PBS, Neutralite Avidin-FITC (Southern Biotechnology Associates, Inc.) was added and incubated for 30 min., fixed and subjected to flow cytometry. FACS data were generated front a minimum of 9900 cells per sample.
# as §4
# [8] = tested on: murine B-cell tumor idiotype 38C13; assay: Competition of γ^32 P-labeled S1C5 binding to its cellular target by unlabeled antibody; assay type: cell-based; conditions: 38C13, data not shown
# Method: as §4
# 38C13 tumor cells = assay: FACS of biotinylated 8-azidoadenosine labeled S1C5; assay type: cell-based, murine; conditions: biotinylated 8-N3 adenosine modified antibody
# Method: as §5, §4
molecule,measurement,setting,value
[N-]=[N+]=Nc1nc2c(N)ncnc2n1[C@@H]1O[C@H](CO)[C@@H](O)[C@H]1O [8-azidoadenosine],binding relative to 8-N3 ATP,antibody affinity site,tighter binding than 8-N3 ATP
Nc1ncnc2c1ncn2[C@@H]1O[C@H](COP(=O)(O)OP(=O)(O)OP(=O)(O)O)[C@@H](O)[C@H]1O [ATP],IC50,"SIC5 antibody [1]; 200 μm [γ^32 P]-8-N3 ATP, ATP 0 to 700 μm, Example 2, read-out: ATP concentration for 50% inhibition of labeling",~350 µM
same,IC50,"SIC5 antibody [1]; ATP vs [γ^32 P]-8-N3 ATP, FIG. 2 legend, read-out: 50% inhibition of photoincorporation",~350 µM
same,protection against photolabeling by ATP,"SIC5 antibody [1]; S1C5, 200 μM [γ^32 P]8-N3 ATP, in words",Photolabeling could be prevented; also recorded: photolabeling is inhibited by ATP
same,protection against photolabeling by ATP,8019 antibody [2],Photolabeling could be prevented; also recorded: photolabeling is inhibited by ATP
[N-]=[N+]=Nc1nc2c(N)ncnc2n1[C@@H]1O[C@H](COP(=O)(O)OP(=O)(O)O[32P](=O)(O)O)[C@@H](O)[C@H]1O [[γ^32 P]-8-N3 ATP],saturation of photolabeling,"SIC5 antibody [3]; S1C5, Example 10",150 to 175 µM
same,Kd,"SIC5 antibody [3]; S1C5, Example 10, read-out: apparent Kd",75 µM
same,saturating concentration of probe,"SIC5 antibody [3]; [γ^32 P]-8-N3 ATP, both heavy and light chains, Example 1",about 200 μm
same,photoincorporation into heavy and light chains,"SIC5 antibody [3]; in words, Example 1",covalently attaching to both antibody heavy and light chains; also recorded: covalently attached to both heavy and light chains
same,saturation of photolabeling,8019 antibody [4],about 50 μM
same,Kd,8019 antibody [4]; read-out: apparent Kd,25 µM
same,average number of molecules of 8-N3 ATP/Ig molecule,S1C5 antibody [5],1.9±0.2 molecules of 8-N3 ATP/Ig molecule
N[C@@H](Cc1c[nH]c2ccccc12)C(=O)O [tryptophan],protection against photolabeling by amino acids,S1C5 antibody [6],best protection
B1,inhibition of γ^32 P-labeled antibody binding by unlabeled antibody,[7],inhibited on an apparent 1:1 ratio by unlabeled antibodies
same,binding to tumor cell targets by flow cytometry,LS174T tumor cells,recognized their specific tumor cell targets
B2,inhibition of γ^32 P-labeled antibody binding by unlabeled antibody,[8],inhibited on an apparent 1:1 ratio by unlabeled antibodies
same,binding to tumor cell targets by flow cytometry,38C13 tumor cells,recognized their specific tumor cell targets

# From US5800991A, “Nucleotide or nucleoside photoaffinity compound modified antibodies, methods for their manufacture and use thereof as diagnostics and therapeutics” (University of Kentucky Research Foundation, priority 1996, dated 1998)
